Values belong to the compound of their own block, whether it stands above or below them. Activity calls are given as the source filed them. No cut-off for these calls is given here.
Tests used:
Peritoneal macrophage [1] = assay: Cytotoxicity against C57BL/6J mouse Primary peritoneal macrophages assessed as cell viability at 1 uM measured after 24 hrs by MTT assay; type: cell-based
Peritoneal macrophage [2] = assay: Antiinflammatory activity in C57BL/6J mouse Primary peritoneal macrophages assessed as suppression of LPS-stimulated TNF-alpha expression at 1 uM preincubated for 30 mins followed by LPS stimulation measured after 24 hrs by ELISA; type: functional, cell-based
Peritoneal macrophage [3] = assay: Antiinflammatory activity in C57BL/6J mouse Primary peritoneal macrophages assessed as inhibition of LPS-stimulated TNF-alpha expression preincubated for 30 mins followed by LPS stimulation measured after 24 hrs by ELISA; type: functional, cell-based
Peritoneal macrophage [4] = assay: Antiinflammatory activity in C57BL/6J mouse Primary peritoneal macrophages assessed as suppression of LPS-stimulated IL-6 expression at 1 uM preincubated for 30 mins followed by LPS stimulation measured after 24 hrs by ELISA; type: functional, cell-based
Peritoneal macrophage [5] = assay: Antiinflammatory activity in C57BL/6J mouse Primary peritoneal macrophages assessed as inhibition of LPS-stimulated IL-6 expression preincubated for 30 mins followed by LPS stimulation measured after 24 hrs by ELISA; type: functional, cell-based

SMILES: S=C(Sn1ccc2ccccc21)N(Cc1ccccc1)Cc1ccccc1
- Activity (Peritoneal macrophage [1]): Non-Toxic

- IC50 (Peritoneal macrophage [3]): 14.1 nM
- IC50 (Peritoneal macrophage [5]): 87.4 nM
SMILES: S=C(Sn1ccc2ccccc21)N1CCSCC1
- inhibition (Peritoneal macrophage [2]): Active
- inhibition (Peritoneal macrophage [3]): Dose-dependent effect
- inhibition (Peritoneal macrophage [4]): Active
- inhibition (Peritoneal macrophage [5]): Dose-dependent effect
- Activity (Peritoneal macrophage [1]): Non-Toxic

- IC50 (Peritoneal macrophage [3]): 107 nM
- IC50 (Peritoneal macrophage [5]): 70.7 nM
SMILES: COc1cccc2c1ccn2SC(=S)N(C)C
- inhibition (Peritoneal macrophage [2]): Active
- inhibition (Peritoneal macrophage [3]): Dose-dependent effect
- inhibition (Peritoneal macrophage [4]): Active
- inhibition (Peritoneal macrophage [5]): Dose-dependent effect
- Activity (Peritoneal macrophage [1]): Non-Toxic

SMILES: CN(C)C(=S)Sn1ccc2ccc(N)cc21
- Activity (Peritoneal macrophage [1]): Non-Toxic

SMILES: Cc1ccc2ccn(SC(=S)N(C)C)c2c1
- Activity (Peritoneal macrophage [1]): Non-Toxic

SMILES: COc1cccc2ccn(SC(=S)N(C)C)c12
- Activity (Peritoneal macrophage [1]): Non-Toxic

SMILES: CCN(CC)C(=S)Sn1ccc2ccccc21
- Activity (Peritoneal macrophage [1]): Non-Toxic

- IC50 (Peritoneal macrophage [3]): 114 nM
- IC50 (Peritoneal macrophage [5]): 87.6 nM
SMILES: S=C(Sn1ccc2ccccc21)N1CCCCCC1
- inhibition (Peritoneal macrophage [2]): Active
- inhibition (Peritoneal macrophage [3]): Dose-dependent effect
- inhibition (Peritoneal macrophage [4]): Active
- inhibition (Peritoneal macrophage [5]): Dose-dependent effect
- Activity (Peritoneal macrophage [1]): Non-Toxic

SMILES: S=C(Sn1ccc2ccccc21)N1CCc2ccccc2C1
- Activity (Peritoneal macrophage [1]): Non-Toxic

SMILES: S=C(Sn1ccc2ccccc21)N1CCCC1
- Activity (Peritoneal macrophage [1]): Non-Toxic

SMILES: CCOC(=O)C1CCCN(C(=S)Sn2ccc3ccccc32)C1 (stereo not drawn)
- Activity (Peritoneal macrophage [1]): Non-Toxic

SMILES: Cc1ccc2c(c1)cc(C)n2SC(=S)N(C)C
- Activity (Peritoneal macrophage [1]): Non-Toxic

SMILES: CN(C)C(=S)Sn1ccc2cc(Cl)ccc21
- Activity (Peritoneal macrophage [1]): Non-Toxic

SMILES: S=C(Sn1ccc2ccccc21)N1CCOCC1
- Activity (Peritoneal macrophage [1]): Non-Toxic

SMILES: CC1CCCC(C)N1C(=S)Sn1ccc2ccccc21 (stereo not drawn)
- Activity (Peritoneal macrophage [1]): Non-Toxic

Source: ChEMBL document CHEMBL4346676, “Base promoted synthesis of novel indole-dithiocarbamate compounds as potential anti-inflammatory therapeutic agents for treatment of acute lung injury” (Eur J Med Chem, 2019)
